Experimental data: PubChem BioAssay (NCI)
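Tested at 5 concentrations; 48 h exposure; 96-well plates; endpoints linearly interpolated, else capped at highest concentration. TGI is the concentration that stops growth completely.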

How the values were obtained:
Test in all cases: growth of human tumour cells (NCI), 48 h
M14 melanoma = system: M14 melanoma
NCI-H23 lung = system: NCI-H23 lung
HT29 colon = system: HT29 colon
SF-295 CNS = system: SF-295 CNS
MDA-MB-231 breast = system: MDA-MB-231 breast
SK-MEL-28 melanoma = system: SK-MEL-28 melanoma
U251 CNS = system: U251 CNS
TK-10 renal = system: TK-10 renal
NCI-H460 lung = system: NCI-H460 lung
SNB-19 CNS = system: SNB-19 CNS
DU-145 prostate = system: DU-145 prostate
OVCAR-3 ovarian = system: OVCAR-3 ovarian
HCT-15 colon = system: HCT-15 colon
COLO 205 colon = system: COLO 205 colon
MALME-3M melanoma = system: MALME-3M melanoma
KM12 colon = system: KM12 colon
SNB-75 CNS = system: SNB-75 CNS
NCI/ADR-RES ovarian = system: NCI/ADR-RES ovarian
HOP-62 NSCLC = system: HOP-62 NSCLC
SK-MEL-5 melanoma = system: SK-MEL-5 melanoma
RPMI-8226 leukemia = system: RPMI-8226 leukemia
OVCAR-8 ovarian = system: OVCAR-8 ovarian
OVCAR-4 ovarian = system: OVCAR-4 ovarian
MDA-N = system: MDA-N
A549 NSCLC = system: A549 NSCLC
SW-620 colon = system: SW-620 colon
LOX IMVI melanoma = system: LOX IMVI melanoma
SK-MEL-2 melanoma = system: SK-MEL-2 melanoma
A498 renal = system: A498 renal
CAKI-1 renal = system: CAKI-1 renal
K-562 leukemia = system: K-562 leukemia
UACC-62 melanoma = system: UACC-62 melanoma
786-0 renal = system: 786-0 renal
SF-539 CNS = system: SF-539 CNS
OVCAR-5 ovarian = system: OVCAR-5 ovarian
PC-3 prostate = system: PC-3 prostate
T-47D breast = system: T-47D breast
ACHN renal = system: ACHN renal
HOP-92 NSCLC = system: HOP-92 NSCLC
SF-268 CNS = system: SF-268 CNS
MDA-MB-435 = system: MDA-MB-435
SN12C renal = system: SN12C renal
NCI-H522 lung = system: NCI-H522 lung
EKVX NSCLC = system: EKVX NSCLC
SK-OV-3 ovarian = system: SK-OV-3 ovarian
UO-31 renal = system: UO-31 renal
HL-60(TB) leukemia = system: HL-60(TB) leukemia
HCC-2998 colon = system: HCC-2998 colon
NCI-H226 lung = system: NCI-H226 lung
HS 578T breast = system: HS 578T breast
MCF7 breast = system: MCF7 breast
BT-549 breast = system: BT-549 breast
UACC-257 melanoma = system: UACC-257 melanoma
HCT-116 colon = system: HCT-116 colon
IGROV1 ovarian = system: IGROV1 ovarian
SR leukemia = system: SR leukemia

Measured: TGI

COC(=O)C1CCC(=O)N1C(c1ccccc1)c1ccc(OC)c(OC)c1 (stereo unspecified)
> 100 µM: all assays above
